The values that follow come from ChEMBL document CHEMBL5360672, “Identification of Novel Dual-Target Estrogen Receptor α Degraders with Tubulin Inhibitory Activity for the Treatment of Endocrine-Resistant Breast Cancer” (J Med Chem, 2023).

Data set [1] deals with MCF7. Briefly: Antitumor activity against human MCF7 cells xenografted in Balb/c nude mouse assessed as tumor growth inhibition at 4 mg/kg, ip administered every other day for 20 days relative to control. The class given is functional. To be noted: MCF7, 480 h, time 20 day, read-out: TGI. A general note: Xenograft models place foreign cells or tissue in a host animal.
Data set [2] in a line: Antitumor activity against human Tamoxifen-resistant LCC2 cells xenografted in Balb/c nude mouse assessed as tumor growth inhibition at 4 mg/kg, ip administered every other day for 20 days relative to control. Type of data set: functional. To be noted: Tamoxifen-resistant LCC2 cell, 480 h, time 20 day, read-out: TGI.
For data set [3], the system named is MCF7. Put plainly: Induction of cell cycle arrest in human MCF7 cells assessed as increase in G2/M phase cells at 0 to 8 uM incubated for 48 hrs by flow cytometry analysis (reference value: 17.45%). Type of data set: functional. The following applies: dose 0-8 µM. A general note: Flow cytometry measures light scatter and fluorescence of single cells or particles in a stream.

In data set [4] the test system is T47D. Briefly: Antiproliferative activity against ERalpha positive human T47D cells assessed as inhibition of cell proliferation incubated for 72 hrs by CCK8 assay. The class given is functional, cell-based. A general note: Tetrazolium assays rely on reduction of a dye to a coloured formazan, in cell work by metabolically active cells.
Data set [5] has as its system T47D. Put plainly: Antiproliferative activity against human T47D cells harboring ERalpha D538G mutant assessed as inhibition of cell proliferation incubated for 72 hrs by CCK8 assay. The class given is functional, cell-based.
In the next data set the test system is MDA-MB-231. Briefly: Antiproliferative activity against ERalpha negative human MDA-MB-231 cells assessed as inhibition of cell proliferation incubated for 72 hrs by CCK8 assay. The following applies: MDA-MB-231, 72 h. Type of data set: functional, cell-based.
Data set [6] addresses T1, Tubulin (Homo sapiens) (UniProt P68371+Q9H4B7+P0DPH7+P68366+Q13509+Q71U36+P04350+Q3ZCM7+P07437+P68363+Q9BQE3+Q6PEY2+Q13885+Q9BVA1+Q9BUF5). Briefly: Disruption of microtubule network in human LCC2 cells assessed as chaotic microtubule network at 4 uM incubated for 48 hrs by DAPI staining based confocal laser scanning microscopic analysis. The class given is cell-based.
The target in data set [7] is T1, Tubulin (Homo sapiens). Briefly: Disruption of microtubule network in human MCF7 cells assessed as ruptured microtubule network at 2 uM incubated for 48 hrs by DAPI staining based confocal laser scanning microscopic analysis. Type of data set: cell-based.
Data set [8] concerns the target T1, Tubulin (Homo sapiens). Put plainly: Inhibition of tubulin polymerization (unknown origin) at 30 uM incubated for 60 mins by microplate reader analysis. The class given is protein-complex assay.
The next data set has as its target T2, Estrogen receptor (Homo sapiens, UniProt P03372).
T2 sequence (P03372 whole entry): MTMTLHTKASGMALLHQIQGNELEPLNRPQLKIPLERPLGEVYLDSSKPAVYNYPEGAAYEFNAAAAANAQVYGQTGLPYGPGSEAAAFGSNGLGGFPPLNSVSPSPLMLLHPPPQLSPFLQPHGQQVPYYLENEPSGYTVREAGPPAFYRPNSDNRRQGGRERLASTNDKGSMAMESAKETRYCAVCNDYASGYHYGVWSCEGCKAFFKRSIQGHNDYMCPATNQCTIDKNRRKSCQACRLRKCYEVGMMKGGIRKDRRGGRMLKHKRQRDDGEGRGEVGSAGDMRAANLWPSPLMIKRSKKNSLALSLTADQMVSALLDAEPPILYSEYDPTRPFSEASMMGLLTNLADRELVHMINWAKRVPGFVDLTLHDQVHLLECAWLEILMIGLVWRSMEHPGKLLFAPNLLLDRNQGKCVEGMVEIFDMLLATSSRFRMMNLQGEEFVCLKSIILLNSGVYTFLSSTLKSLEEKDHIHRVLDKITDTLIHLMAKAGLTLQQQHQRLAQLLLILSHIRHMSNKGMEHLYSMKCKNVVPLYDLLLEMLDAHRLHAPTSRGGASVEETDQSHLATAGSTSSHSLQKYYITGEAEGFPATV
Briefly: Antagonist activity at ERalpha (unknown origin) expressed in HEK293T cells co-expressing ERbeta and ERE-luciferase reporter assessed as reduction in relative light unit incubated for 24 hrs by dual-luciferase reporter assay. Type of data set: cell-based.

For data set [9], the target named is T3, Estrogen receptor (Homo sapiens) (UniProt P03372).
T3 sequence (whole entry): T2 sequence (P03372 whole entry)
Briefly: Binding affinity to human ERalpha assessed as relative binding affinity incubated under vibration for 1 min followed by 2 hrs incubation under dark condition by fluorescence polarization assay relative to estradiol. The following applies: time 121.0 min.

The nature of data set [10]: Selectivity index, ratio of IC50 for cytotoxicity against human MCF-10A cells to IC50 for antiproliferative activity against human MCF7 cells. Type of data set: toxicity, cell-based. To be noted: MCF-10A cells and MCF7 cells, read-out: Ratio IC50.
A short description of data set [11]: Antiproliferative activity against human Tamoxifen-resistant LCC2 cells assessed as inhibition of cell proliferation incubated for 72 hrs by CCK8 assay. The class given is functional, cell-based.
Data set [12] deals with MCF7. Briefly: Antiproliferative activity against ERalpha positive human MCF7 cells assessed as inhibition of cell proliferation incubated for 72 hrs by CCK8 assay. Type of data set: functional, cell-based. The following applies: MCF7, 72 h.
Data set [13] addresses T1, Tubulin (Homo sapiens). Put plainly: Disruption of microtubule network in human LCC2 cells assessed as ruptured microtubule network at 4 uM incubated for 48 hrs by DAPI staining based confocal laser scanning microscopic analysis. The class given is cell-based.
For another data set, the system named is LCC2. Put plainly: Induction of cell cycle arrest in human LCC2 cells assessed as accumulation of cells at G2/M phase incubated for 48 hrs by flow cytometry analysis. Type of data set: functional, cell-based. To be noted: dose 6-24 µM.
The nature of data set [14]: Cytotoxicity against human MCF-10A cells assessed as inhibition of cell proliferation incubated for 72 hrs by CCK8 assay. The class given is toxicity, cell-based.
The species named for a further data set is Homo sapiens. Briefly: Selectivity ratio of relative binding affinity for human ERalpha to relative binding affinity to human ERbeta.
In data set [15] the target is T1, Tubulin (Homo sapiens). Put plainly: Disruption of microtubule network in human MCF7 cells assessed as chaotic microtubule network at 2 uM incubated for 48 hrs by DAPI staining based confocal laser scanning microscopic analysis. The class given is cell-based.
For data set [16], the system named is T47D. Briefly: Antiproliferative activity against human T47D cells harboring ERalpha Y537S mutant assessed as inhibition of cell proliferation incubated for 72 hrs by CCK8 assay. The class given is functional, cell-based.
Data set [17] concerns the target Estrogen receptor beta (Homo sapiens) (UniProt Q92731). Put plainly: Binding affinity to human ERbeta assessed as relative binding affinity incubated under vibration for 1 min followed by 2 hrs incubation under dark condition by fluorescence polarization assay relative to estradiol. To be noted: time 121.0 min.

Activity calls are given as the source filed them. The rule behind the calls is not given here.

Chain of Estrogen receptor beta (Homo sapiens) (Q92731 whole entry): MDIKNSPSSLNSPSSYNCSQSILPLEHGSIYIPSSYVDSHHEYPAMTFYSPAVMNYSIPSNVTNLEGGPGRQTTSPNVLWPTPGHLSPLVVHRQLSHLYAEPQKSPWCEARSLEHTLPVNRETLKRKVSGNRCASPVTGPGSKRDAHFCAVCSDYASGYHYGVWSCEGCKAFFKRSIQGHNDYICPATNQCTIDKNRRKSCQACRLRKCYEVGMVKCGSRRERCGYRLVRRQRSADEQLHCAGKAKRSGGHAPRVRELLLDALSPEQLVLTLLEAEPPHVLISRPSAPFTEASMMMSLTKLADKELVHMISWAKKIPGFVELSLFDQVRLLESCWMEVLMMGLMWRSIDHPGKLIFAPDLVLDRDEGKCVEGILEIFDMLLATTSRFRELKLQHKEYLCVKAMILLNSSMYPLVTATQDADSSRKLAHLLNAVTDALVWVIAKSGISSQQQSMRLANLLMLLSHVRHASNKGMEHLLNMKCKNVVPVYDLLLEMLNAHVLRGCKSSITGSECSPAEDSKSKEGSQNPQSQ

With `CC/C(=C(\c1ccccc1)c1ccc(OCCN(C)C)cc1)c1ccccc1` [TAMOXIFEN], the inhibition in vivo at 4 mg/kg is 71.4% with MCF7 [1] and 6.25% in [2].
A word on the IC50: it is the concentration that gives 50% inhibition. Consider `N#C[Se]CCCCCC(=O)Nc1ccc(C2=C(c3ccc(O)cc3)C3CC(S(=O)(=O)Oc4ccccc4F)C2O3)cc1` (stereo unspecified), for which the Activity was 27.55% with MCF7 [3] and “Dose-Dependent Effect” in the data set on LCC2. The IC50 in the data set with T47D [4] stood at 850 nM; in the data set with T47D [5] it was 1470 nM; with MDA-MB-231 it was 3400 nM; on Estrogen receptor it was 1010 nM; in [11], 6130 nM; with MCF7 [12] it was 280 nM. In addition, the IC50 in the data set on T47D [16] was found to be 1560 nM. Moreover, the result at Tubulin (Homo sapiens) [6], on Tubulin (Homo sapiens) [7], on Tubulin (Homo sapiens) [13] and on Tubulin (Homo sapiens) [15] was Active. In addition, the “tubulin polymerization inhibition (active/not active)” value at Tubulin (Homo sapiens) [8] is “Active”. For the same molecule, the RBA in data set [9] came to 17.4%; in data set [17] it was 0.39%. For the same molecule, the selectivity ratio in [10] was 63. Further, the IC50 at 72 h in [14] was 17600 nM. Also, the Selectivity ratio in the data set filed under Homo sapiens is 44.5.
